Results published in PubChem BioAssay AID1259407 (Chemical Carcinogenesis Research Information System (CCRIS), 2018).
Activity calls are given as the source filed them. No rule for the calls is given here.

Test system: CCRIS mutagenicity, Ames/micronucleus/aberration tests
Assay: CCRIS mutagenicity studies
Excerpt: The CCRIS database contains chemical records with carcinogenicity, mutagenicity, tumor promotion, and tumor inhibition test results. It was developed by the National Cancer Institute (NCI). Data are derived from studies cited in primary journals, current awareness tools, NCI reports, and other sources. Test results have been reviewed by experts in carcinogenesis and mutagenesis.
CCRIS provides historical information from the years 1985 - 2011. It is no longer updated.
This is an archive assay for CCRIS mutagenicity studies.

[1] = Test System: AMES SALMONELLA TYPHIMURIUM, Strain/Indicator: TA98, Metabolic Activation: NONE, Method: STANDARD PLATE
[2] = Test System: AMES SALMONELLA TYPHIMURIUM, Strain/Indicator: TA98, Metabolic Activation: RAT, LIVER, S-9, AROCLOR 1254, Method: STANDARD PLATE
[3] = Test System: AMES SALMONELLA TYPHIMURIUM, Strain/Indicator: TA100, Metabolic Activation: NONE, Method: STANDARD PLATE
[4] = Test System: AMES SALMONELLA TYPHIMURIUM, Strain/Indicator: TA100, Metabolic Activation: RAT, LIVER, S-9, AROCLOR 1254, Method: STANDARD PLATE
[5] = Test System: MOUSE LYMPHOMA, Strain/Indicator: L5178Y (TK+/TK-), Metabolic Activation: NONE, Method: SUSPENSION/PLATE
[6] = Test System: MOUSE LYMPHOMA, Strain/Indicator: L5178Y (TK+/TK-), Metabolic Activation: RAT, LIVER, S-9, AROCLOR 1254, Method: SUSPENSION/PLATE

What does the source list for `O=C(O[C@@H]1Cc2c(O)cc(O)cc2O[C@H]1c1ccc(O)c(O)c1)c1cc(O)c(O)c(O)c1`?
mutagenic call (Test System: Ames Salmonella typhimurium, Strain/Indicator: TA102, Metabolic Activation: None, Method: Preincubation): inactive; negative; mutagenic call (Test System: Ames Salmonella typhimurium, Strain/Indicator: TA102, Metabolic Activation: Rat, Liver, S-9, Aroclor 1254 in 0.154 M KCl, Method: Preincubation): inactive; negative

Which results are given for `CC(=O)/C=C/C1=C(C)CCCC1(C)C`?
mutagenic call (Test System: AMES SALMONELLA TYPHIMURIUM, Strain/Indicator: TA98, Metabolic Activation: HAMSTER, LIVER, S-9, AROCLOR 1254 (10%), Method: PREINCUBATION): inactive; negative; mutagenic call (Test System: AMES SALMONELLA TYPHIMURIUM, Strain/Indicator: TA98, Metabolic Activation: NONE, Method: PREINCUBATION): inactive; negative; mutagenic call (Test System: AMES SALMONELLA TYPHIMURIUM, Strain/Indicator: TA98, Metabolic Activation: RAT, LIVER, S-9, AROCLOR 1254 (10%), Method: PREINCUBATION): inactive; negative; mutagenic call (Test System: AMES SALMONELLA TYPHIMURIUM, Strain/Indicator: TA100, Metabolic Activation: HAMSTER, LIVER, S-9, AROCLOR 1254 (10%), Method: PREINCUBATION): inactive; negative; mutagenic call (Test System: AMES SALMONELLA TYPHIMURIUM, Strain/Indicator: TA100, Metabolic Activation: NONE, Method: PREINCUBATION): inactive; negative; mutagenic call (Test System: AMES SALMONELLA TYPHIMURIUM, Strain/Indicator: TA100, Metabolic Activation: RAT, LIVER, S-9, AROCLOR 1254 (10%), Method: PREINCUBATION): inactive; negative; mutagenic call (Test System: AMES SALMONELLA TYPHIMURIUM, Strain/Indicator: TA1535, Metabolic Activation: HAMSTER, LIVER, S-9, AROCLOR 1254 (10%), Method: PREINCUBATION): inactive; negative; mutagenic call (Test System: AMES SALMONELLA TYPHIMURIUM, Strain/Indicator: TA1535, Metabolic Activation: NONE, Method: PREINCUBATION): inactive; negative; mutagenic call (Test System: AMES SALMONELLA TYPHIMURIUM, Strain/Indicator: TA1535, Metabolic Activation: RAT, LIVER, S-9, AROCLOR 1254 (10%), Method: PREINCUBATION): inactive; negative; mutagenic call (Test System: AMES SALMONELLA TYPHIMURIUM, Strain/Indicator: TA1537, Metabolic Activation: HAMSTER, LIVER, S-9, AROCLOR 1254 (10%), Method: PREINCUBATION): inactive; negative; mutagenic call (Test System: AMES SALMONELLA TYPHIMURIUM, Strain/Indicator: TA1537, Metabolic Activation: NONE, Method: PREINCUBATION): inactive; negative; mutagenic call (Test System: AMES SALMONELLA TYPHIMURIUM, Strain/Indicator: TA1537, Metabolic Activation: RAT, LIVER, S-9, AROCLOR 1254 (10%), Method: PREINCUBATION): inactive; negative; mutagenic call (Test System: Ames Salmonella typhimurium, Strain/Indicator: TA97a, Metabolic Activation: None, Method: Preincubation): inactive; negative; mutagenic call (Test System: Ames Salmonella typhimurium, Strain/Indicator: TA97a, Metabolic Activation: None, Method: Standard plate): inactive; negative; mutagenic call (Test System: Ames Salmonella typhimurium, Strain/Indicator: TA97a, Metabolic Activation: Rat, Liver, S-9, Aroclor 1254, Method: Preincubation): inactive; negative; mutagenic call (Test System: Ames Salmonella typhimurium, Strain/Indicator: TA97a, Metabolic Activation: Rat, Liver, S-9, Aroclor 1254, Method: Standard plate): inactive; negative; mutagenic call (Test System: Ames Salmonella typhimurium, Strain/Indicator: TA98, Metabolic Activation: None, Method: Preincubation): inactive; negative; mutagenic call (Test System: Ames Salmonella typhimurium, Strain/Indicator: TA98, Metabolic Activation: None, Method: Standard plate): inactive; negative; mutagenic call (Test System: Ames Salmonella typhimurium, Strain/Indicator: TA98, Metabolic Activation: Rat, Liver, S-9, Aroclor 1254, Method: Preincubation): inactive; negative; mutagenic call (Test System: Ames Salmonella typhimurium, Strain/Indicator: TA98, Metabolic Activation: Rat, Liver, S-9, Aroclor 1254, Method: Standard plate): inactive; negative; mutagenic call (Test System: Ames Salmonella typhimurium, Strain/Indicator: TA100, Metabolic Activation: None, Method: Preincubation): inactive; negative; mutagenic call (Test System: Ames Salmonella typhimurium, Strain/Indicator: TA100, Metabolic Activation: None, Method: Standard plate): inactive; negative; mutagenic call (Test System: Ames Salmonella typhimurium, Strain/Indicator: TA100, Metabolic Activation: Rat, Liver, S-9, Aroclor 1254, Method: Preincubation): inactive; negative; mutagenic call (Test System: Ames Salmonella typhimurium, Strain/Indicator: TA100, Metabolic Activation: Rat, Liver, S-9, Aroclor 1254, Method: Standard plate): inactive; negative; mutagenic call (Test System: Ames Salmonella typhimurium, Strain/Indicator: TA1535, Metabolic Activation: None, Method: Preincubation): inactive; negative; mutagenic call (Test System: Ames Salmonella typhimurium, Strain/Indicator: TA1535, Metabolic Activation: None, Method: Standard plate): inactive; negative; mutagenic call (Test System: Ames Salmonella typhimurium, Strain/Indicator: TA1535, Metabolic Activation: Rat, Liver, S-9, Aroclor 1254, Method: Preincubation): inactive; negative; mutagenic call (Test System: Ames Salmonella typhimurium, Strain/Indicator: TA1535, Metabolic Activation: Rat, Liver, S-9, Aroclor 1254, Method: Standard plate): inactive; negative

For `CCCCCON=O`, which mutagenic call (Test System: AMES SALMONELLA TYPHIMURIUM, Strain/Indicator: TA98, Metabolic Activation: HAMSTER, LIVER, S-9, AROCLOR 1254, Method: STANDARD PLATE) is on record?
The mutagenic call was “inactive; negative”.

What about the mutagenic call [1] of the same molecule?
The mutagenic call was “inactive; negative”.

And the mutagenic call [2]?
Its mutagenic call is “inactive; negative”.

And the mutagenic call (Test System: AMES SALMONELLA TYPHIMURIUM, Strain/Indicator: TA100, Metabolic Activation: HAMSTER, LIVER, S-9, AROCLOR 1254, Method: STANDARD PLATE)?
Its mutagenic call is “active; positive”.

And the mutagenic call [3]?
The mutagenic call was “active; positive”.

What about the mutagenic call [4] of the same molecule?
Its mutagenic call is “inactive; negative”.

What about the mutagenic call (Test System: AMES SALMONELLA TYPHIMURIUM, Strain/Indicator: TA1535, Metabolic Activation: HAMSTER, LIVER, S-9, AROCLOR 1254, Method: STANDARD PLATE) of the same molecule?
Its mutagenic call is “active; positive”.

What about the mutagenic call (Test System: AMES SALMONELLA TYPHIMURIUM, Strain/Indicator: TA1535, Metabolic Activation: NONE, Method: STANDARD PLATE) of the same molecule?
Its mutagenic call is “active; positive”.

What about the mutagenic call (Test System: AMES SALMONELLA TYPHIMURIUM, Strain/Indicator: TA1535, Metabolic Activation: RAT, LIVER, S-9, AROCLOR 1254, Method: STANDARD PLATE) of the same molecule?
The mutagenic call was “active; positive”.

What about the mutagenic call (Test System: AMES SALMONELLA TYPHIMURIUM, Strain/Indicator: TA1537, Metabolic Activation: HAMSTER, LIVER, S-9, AROCLOR 1254, Method: STANDARD PLATE) of the same molecule?
The mutagenic call was “inactive; negative”.

And the mutagenic call (Test System: AMES SALMONELLA TYPHIMURIUM, Strain/Indicator: TA1537, Metabolic Activation: NONE, Method: STANDARD PLATE)?
Its mutagenic call is “inactive; negative”.

And the mutagenic call (Test System: AMES SALMONELLA TYPHIMURIUM, Strain/Indicator: TA1537, Metabolic Activation: RAT, LIVER, S-9, AROCLOR 1254, Method: STANDARD PLATE)?
The mutagenic call was “inactive; negative”.

And the mutagenic call [5]?
The mutagenic call was “inactive; negative. reevaluation of results: inconclusive/negative”.

What about the mutagenic call [6] of the same molecule?
The mutagenic call was “inactive; negative. reevaluation of results: negative”.

Which results are given for `ClCc1ccccn1`?
mutagenic call (Test System: AMES SALMONELLA TYPHIMURIUM, Strain/Indicator: TA97, Metabolic Activation: NONE, Method: STANDARD PLATE): inactive; negative; mutagenic call (Test System: AMES SALMONELLA TYPHIMURIUM, Strain/Indicator: TA97, Metabolic Activation: RAT, LIVER, S-9, AROCLOR 1254, Method: STANDARD PLATE): inactive; negative; mutagenic call [1]: inactive; negative; mutagenic call [2]: inactive; negative; mutagenic call [3]: active; positive; mutagenic call [4]: active; positive; mutagenic call (Test System: AMES SALMONELLA TYPHIMURIUM, Strain/Indicator: TA102, Metabolic Activation: NONE, Method: STANDARD PLATE): inactive; negative; mutagenic call (Test System: AMES SALMONELLA TYPHIMURIUM, Strain/Indicator: TA102, Metabolic Activation: RAT, LIVER, S-9, AROCLOR 1254, Method: STANDARD PLATE): inactive; negative; mutagenic call (Test System: CHINESE HAMSTER OVARY, Strain/Indicator: CHO-K1-BH4 (HGPRT)/6-THIOGUANINE, Metabolic Activation: NONE): active; positive; mutagenic call (Test System: CHINESE HAMSTER OVARY, Strain/Indicator: CHO-K1-BH4 (HGPRT)/6-THIOGUANINE, Metabolic Activation: S-9): inactive; negative

`Cc1c(O)c(=O)ccn1C` was tested. Which mutagenic call [5] did it give?
The mutagenic call was “active; positive. reevaluation of results: positive”.

And the mutagenic call [6]?
The mutagenic call was “active; positive. reevaluation of results: equivocal”.

Which mutagenic call [3] does the source give for `CCC(=O)NCc1ccccc1` here?
The mutagenic call was “inactive; negative”.

With `[N-]=[N+]=NC[C@@H](CO)Cc1ccccc1` as the molecule, how does the mutagenic call (Test System: AMES SALMONELLA TYPHIMURIUM, Strain/Indicator: TA100, Metabolic Activation: RAT, LIVER, S-9, PCB, Method: PREINCUBATION) read?
Its mutagenic call is “active; positive”.

Which mutagenic call (Test System: AMES SALMONELLA TYPHIMURIUM, Strain/Indicator: TA98, Metabolic Activation: RAT, LIVER, S-9, POLYCHLORINATED BIPHENYLS, Method: PREINCUBATION) does the source give for `CN(C)c1ccc(N=Nc2ccc(N(C)C)cc2)cc1` here?
The mutagenic call was “inactive; negative”.

What about the mutagenic call (Test System: AMES SALMONELLA TYPHIMURIUM, Strain/Indicator: TA100, Metabolic Activation: RAT, LIVER, S-9, POLYCHLORINATED BIPHENYLS, Method: PREINCUBATION) of the same molecule?
The mutagenic call was “inactive; negative”.
